Assay results as given in patent US5594009A, “Fused pyrrolocarbazoles” (priority 1995, dated 1997).

Experiments:
[1] = tested on: choline acetyltransferase (ChAT) activity in dissociated rat embryonic spinal cord culture; test: Spinal Cord ChAT Activity Assay; type: cell-based; conditions: ChAT measured after 48 hours
Procedure: In these assays, a fused pyrrolocarbazole was directly added to a dissociated spinal cord culture. […] The fused pyrrolocarbazole was added on the same day the dissociated spinal cord cell culture was initiated.
Methods: Fetal rat spinal cord cells were dissociated, and experiments were performed as described (Smith et al., J. Cell Biology., 101:1608-1621 (1985); Glicksman et al., J. Neurochem. 61:210-221 (1993)). Dissociated cells were prepared from spinal cords dissected from rats (embryonic day 14-15) by standard trypsin dissociation techniques (Smith et al., J. Cell Biology 10:1608-1621 (1985)). Cells were plated at 6×10^5 cells/cm^2 on poly-1-ornithine coated plastic tissue culture wells in serum-free N2 medium supplemented with 0.05% bovine serum albumin (BSA) (Bottenstein et al., PNAS USA 514-517 (1979)). Cultures were incubated at 37° C. in a humidified atmosphere of 5% CO2 /95% air for 48 hours. ChAT activity was measured after 2 days it vitro using a modification of the Fonnum procedure (Fonnum, J. Neurochem. 24:407-409 (1975)) according to McManaman et al. and Glicksman et al. (McManaman et al., Developmental Biology 125:311-320 (1988); Glicksman et al., J. Neurochem. 61:210-221 (1993)).

chick DRG neurons = test: DRG Neuron Survival Assay (calcein AM); type: cell-based; conditions: Gallus gallus, DRG neuron, 48 hours, read-out: Neuronal Survival (% of Control)
Procedure: Fused pyrrolocarbazoles promoted dorsal root ganglion (DRG) neuronal survival in cultures of chick DRG neurons. Cell survival was measured by uptake of calcein AM, an analog of the viable dye, fluorescein diacetate. Calcein is taken up by viable cells and cleaved intracellularly to fluorescent salts which are retained by intact membranes of viable cells. Microscopic counts of viable neurons correlate directly with relative fluorescence values obtained with the fluorimetric viability assay. This method thus provides a reliable and quantitive measurement of cell survival in the total cell population of a given culture (Bozyczko-Coyne et al., J. Neur. Meth. 50:205-216, 1993).
Methods: Dorsal root ganglia were dissected from embryonic age day 9 chick embryos and dissociated cells prepared by subsequent Dispase (neutral protease, Collaborative Research) dissociation. Neurons were seeded at low density (3×10^4 cells/cm^2) into 96 well poly-L-ornithine and laminin coated plates. Cells were cultured for 48 hours in serum-free N2 medium (Bottenstein and Sato, 1979) at 37° C. in a humidified atmosphere, 5% CO2 /95% air. Cell survival was assessed at 48 hours using the viable fluorimetric assay described above.

trkA tyrosine kinase = trkA tyrosine kinase (Homo sapiens, UniProt P04629); test: trkA Tyrosine Kinase Activity Inhibition Assay (ELISA); type: biochemical; conditions: 16 μM ATP, 37° C., 15 min; read-out: INHIBITION OF trkA KINASE IC50
Sequence of trkA tyrosine kinase (P04629 33-796): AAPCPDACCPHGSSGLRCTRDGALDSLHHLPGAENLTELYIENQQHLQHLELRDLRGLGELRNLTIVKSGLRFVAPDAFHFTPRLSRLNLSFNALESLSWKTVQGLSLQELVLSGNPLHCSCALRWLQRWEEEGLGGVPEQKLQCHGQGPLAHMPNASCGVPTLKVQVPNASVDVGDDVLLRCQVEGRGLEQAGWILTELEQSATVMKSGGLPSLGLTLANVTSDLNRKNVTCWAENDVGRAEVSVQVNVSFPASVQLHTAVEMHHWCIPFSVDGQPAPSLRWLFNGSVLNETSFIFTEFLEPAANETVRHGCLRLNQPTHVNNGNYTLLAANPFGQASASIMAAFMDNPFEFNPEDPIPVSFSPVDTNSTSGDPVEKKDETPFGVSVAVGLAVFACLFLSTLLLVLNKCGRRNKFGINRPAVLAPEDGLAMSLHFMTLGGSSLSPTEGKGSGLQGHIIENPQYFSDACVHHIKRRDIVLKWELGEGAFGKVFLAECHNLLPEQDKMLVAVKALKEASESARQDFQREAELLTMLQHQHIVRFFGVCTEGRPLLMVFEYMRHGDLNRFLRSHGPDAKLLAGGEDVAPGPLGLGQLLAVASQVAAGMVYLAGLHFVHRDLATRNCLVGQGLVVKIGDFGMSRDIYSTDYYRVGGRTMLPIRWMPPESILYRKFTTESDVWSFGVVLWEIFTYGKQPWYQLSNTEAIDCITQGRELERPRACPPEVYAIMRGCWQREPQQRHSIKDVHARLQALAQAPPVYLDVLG
Procedure: These compounds were then tested for the ability to inhibit substrate phosphorylation by the trkA tyrosine kinase.
Plates were washed three times with TBST, followed by two washes with TBS (TBST sans Tween-20). Fused pyrrolocarbazoles were then added at various concentrations to a reaction mixture (50 mM HEPES, pH 7.4, 5 mM MnCl2, 5 mM MgCl2, 140 mM NaCl, 16 μM ATP, and 15 ng trkA in a total volume of 1001 μL.). As a negative control, 100 mM EDTA was included in the reaction solution. The plates were then incubated at 37° C. for 15 min. The detection antibody, monoclonal anti-phosphotyrosine antibody (UBI), was added at a dilution of 1:2000 in TBST, and incubated for 1 hour at 37° C. Plates were then washed three times with TBST, followed by a 1 hour incubation at 37° C. with alkaline phosphatase-labeled goat anti-mouse IgG (1:2000 in TBST (Bio-Rad)). After washing three times with TBST followed by two washes with TBS, a colored product was produced by using NADPH as substrate for alkaline phosphatase, and the coupled reactions of diaphorase and alcohol dehydrogenase (GIBCO-BRL ELISA amplification system). The colored product was read at 490 nm in a microplate reader (Biotek).

[2] = tested on: indoleamine 2,3-dioxygenase (IDO) mRNA in THP-1 cells; test: Inhibition of Induction By IFNγ of IDO mRNA; type: cell-based; conditions: Homo sapiens, compound 400 nM, IFNγ 400 units/ml, IDO/GAPD mRNA ratio, 48 hours, read-out: IDO mRNA, Phosphorimager units, % of IFNγ-treated cells
Procedure: Fused pyrrolocarbazoles in accordance with our invention were tested for their ability to inhibit the induction by IFNγ of indoleamine 2,3-dioxygenase (IDO) mRNA in THP-1 cells, a human monocyte cell line.
Cell Culture: THP-1 cells (American Type Culture Collection, Rockville, Md.), a human monocytic leukemia cell line, were grown in RPMI 1640 medium (Mediatech, Herndon Valley, Va.) with 50 μM 2-mercaptoethanol and 10% fetal bovine serum. Cells were plated in T75 culture flasks, at 4×10^4 cells/cm^2 in 10 ml of medium, and were immediately treated with fused pyrrolocarbazoles at various concentrations. After 30 minutes recombinant (E. coli) IFNγ (Boehringer Mannheim Corporation,Indianapolis, Ind.) was added at 200-400 units/ml. Cells were incubated (37° C., 5% CO2 /95% Air) for 48 hours after treatment.
RNA Isolation: Cells were pelleted by centrifugation (50× g, 7 min.) and medium was decanted. The cells were then washed two times with phosphate buffered saline pH 7.2 (PBS) (Mediatech, Herndon Valley, Va.). The washed cell pellet was lysed in 2 ml RNAzol B (Tel-Test, Inc., Friendswood, Tex.). RNA was isolated by chloroform extraction, precipitated, and washed following the "RNAzol B isolation of RNA" protocol accompanying this product. RNA was then solubilized in H2 O, and the concentration and purity were determined by reading the absorbance at A260 nm and A280 nm. Finally, the RNA was reprecipitated in ethanol, overnight at -20° C.
cDNA Probes: Indoleamine 2,3-dioxygenase (IDO) cDNA was received from Sohan L. Gupta, Ph. D. (Hipple Cancer Research Center, Dayton, Ohio) (see Da., W. & Gupta, S. L. 168 Biochem. Biophys. Res. Commun. 1, 1990 and Hassanain, H. H. et al. 268 J. Biol. Chem. 5077, 1993). Glyceraldehyde-3-phosphate dehydrogenase (GAPD) cDNA was obtained through American Type Culture Collection (Rockville, Md.). These cDNA's were produced and purified using standard methods (see, Sambrook, Fritsch, Maniatis (1989) Molecular Cloning a Laboratory Manual/Second Edition 1, 1.21-1.24, 1.74-1.81, hereinafter in this Example, "Maniatis a") using Qiagen plasmid purification kits (Qiagen Inc., Chatsworth, Calif.). DNA concentration and purity were determined by absorbance at 280 nm and 260 nm. Specific DNA inserts were cut out by standard methods using restriction enzymes, and subsequently separated on agarose gels as in Maniatis (see, Sambrook, Fritsch, Maniatis (1989) Molecular Cloning a Laboratory Manual/Second Edition 1, 6.9-6.15, hereinafter in this Example, "Maniatis b"). cDNA probes were further purified for [^32 P] labeling using the Geneclean II DNA purification kit (BIO 101, Inc., La Jolla, Calif.). Probes were labeled with dCTP-α-^32 P (Amersham Corp., Arlington Heights, Ill.) by random primer labeling, using the Prime-a-GeneLabeling System (Promega Corp., Madison, Wis.).
Analysis and quantification of mRNA: IDO mRNA was detected by Northern blot analysis (see Maniatis a, p. 7.39-7.51) using standard methods. […] Quantification of IDO mRNA was carried out using a phosphorimager (Molecular Dynamics) in which density (i.e., amount of RNA) is expressed as relative phosphorimager units. […] GAPD mRNA measurement by phosphorimager quantification of Northern blots serves as a means to normalize for potential sample to sample differences in the amount of total RNA loaded on gels. […]

[3] = tested on: lumbar motoneurons of chick embryos; test: Inhibition of Motoneuron Death In Ovo; type: in vivo; conditions: for Number of motoneurons mean ± SD / % of motoneurons rescued versus control: E6-E9; for Number of motoneurons mean ± SD: one side of spinal cord
Procedure: The samples (50 ul) were applied to the vascularized chorioallantoic membrane through a window in the egg shell as previously described (Oppenheim et al., 1988). Embryos were sacrificed on E10 and spinal cords were removed, fixed in Carnoy's solution (10% acetic acid, 60% ethanol, 30% chloroform), embedded in paraffin, sectioned at 8 um, and stained with thionin as described previously (Oppenheim et al., 1988). Motoneurons (identified by morphology and position) were counted by an individual blind to the treatment conditions in every tenth section according to previously established criteria (Oppenheim et al., 1982, Oppenheim, 1986).

protein kinase C = test: PKC Activity Inhibition Assay; type: biochemical
Procedure: Fused pyrrolocarbazoles inhibited the activity of protein kinase C (Table VI). The protein kinase C assay has been disclosed (Murakata et al., U.S. Pat. No. 4,923,986; Kikkawa et al., J. Biol. Chem. 257:13341-13348 (1982)). The assay was performed with several concentrations of fused pyrrolocarbazoles. The concentration at which protein kinase C was 50% inhibited (IC50) was determined.

| IC50 (protein kinase C) [nM] | SMILES | Spinal Cord ChAT Activity, % of Control, untreated cultures [1] | viability at 0.1 µM (chick DRG neurons; 100 nM) [%] | viability at 0.25 µM (chick DRG neurons; 250 nM) [%] | viability at 0.5 µM (chick DRG neurons; 500 nM) [%] | IC50 (trkA tyrosine kinase) [nM] | mrna remaining at 0.4 µM [2] [%] | Number of motoneurons mean ± SD ([3]; 0.06 ug/egg daily) | % of motoneurons rescued versus control ([3]; 0.3 ug/egg daily) [%] | Number of motoneurons mean ± SD ([3]; 0.3 ug/egg daily) | % of motoneurons rescued versus control ([3]; 0.6 ug/egg daily) [%] | Number of motoneurons mean ± SD ([3]; 0.6 ug/egg daily) | increase in motoneuron survival in treated vs. control embryos, maximal effect ([3]; 0.6 ug/egg, vehicle-treated control) [%] | % of motoneurons rescued versus control ([3]; 1.2 ug/egg daily) [%] | Number of motoneurons mean ± SD ([3]; 1.2 ug/egg daily) | dose at which the maximal effect was achieved ([3]; daily dose) [ug/egg] |
| --- | --- | --- | --- | --- | --- | --- | --- | --- | --- | --- | --- | --- | --- | --- | --- | --- |
|  | O=C1NCc2c1c1c(c3[nH]c4ccc(C=Cc5ccccn5)cc4c23)Cc2ccccc2-1 [Compound I-32, 3-(2-Pyridinylethenyl)-5H,6H,12H,13H-indeno[2,3-a]pyrrolo[3,4-c]carbazole-7(7H)-one] | 288 % of Control | 173 | 164 | 151 | > 1000 | 70 | 9657 ± 529 | 8 | 10215 ± 481 | 31 | 12357 ± 499 | 31 | 24 | 11743 ± 1497 | 0.6 |
| 4500 | O=C1NCc2c1c1c(c3[nH]c4ccc(Br)cc4c23)Cc2ccccc2-1 [Compound I-9, 3-Bromo-5H, 6H, 12H, 13H-indeno[2,3-a]pyrrolo[3,4-c]carbazole-7(7H)one] | 185 % of Control |  |  |  |  | 60 |  |  |  |  |  |  |  |  |  |
| 450 | O=C1NCc2c3c(c4[nH]c5ccc(Br)cc5c4c21)Cc1ccccc1-3 [Compound I-11, 3-Bromo-6H, 7H, 12H, 13H -indeno[2,3-a]pyrrolo[3,4-carbazole-5(5H)one] | 188 % of Control |  |  |  |  | 49 |  |  |  |  |  |  |  |  |  |
